Laboratory results published in patent US8426602B2, “Heteroaryl-substituted dicyanopyridines and their use” (Bayer Intellectual Property GmbH, priority 2008, dated 2013).

Experiments:
Type in all cases: cell-based
adenosine A1 receptor = molecular target: T1, adenosine A1 receptor (Homo sapiens, UniProt P30542); experiment: Indirect determination of adenosine agonism by way of gene expression (luciferase), A1 cells; conditions: stably transfected CHO cells; 1 μM forskolin; 50% inhibition of luciferase response
T1 construct: expressed in transfected cells; host or cells: CHO (Chinese Hamster Ovary)
T1 sequence (P30542 1-326): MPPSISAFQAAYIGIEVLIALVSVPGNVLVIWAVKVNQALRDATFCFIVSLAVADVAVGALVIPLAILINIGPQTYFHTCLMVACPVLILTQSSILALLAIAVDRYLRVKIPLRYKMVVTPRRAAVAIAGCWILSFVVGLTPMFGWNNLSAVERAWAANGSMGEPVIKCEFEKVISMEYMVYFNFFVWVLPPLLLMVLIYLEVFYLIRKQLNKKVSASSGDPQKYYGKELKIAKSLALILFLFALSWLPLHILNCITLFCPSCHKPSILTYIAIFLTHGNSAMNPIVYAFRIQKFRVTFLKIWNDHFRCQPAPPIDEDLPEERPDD
From the text: (§1) B-1. Indirect Determination of the Adenosine Agonism by Way of Gene Expression
(§2) Cells of the CHO (Chinese Hamster Ovary) permanent line are transfected stably with the cDNA for the adenosine receptor subtypes A1, A2a and A2b. The adenosine A1 receptors are coupled to the adenylate cyclase by way of Gi proteins, while the adenosine A2a and A2b receptors are coupled by way of Gs proteins. In correspondence with this, the formation of cAMP in the cell is inhibited or stimulated, respectively. After that, expression of the luciferase is modulated by way of a cAMP-dependent promoter. The luciferase test is optimized, with the aim of high sensitivity and reproducibility, low variance and good suitability for implementation on a robot system, by varying several test parameters, such as cell density, duration of the growth phase and the test incubation, forskolin concentration and medium composition. The following test protocol is used for pharmacologically characterizing cells and for the robot-assisted substance screening:
(§3) The stock cultures are grown, at 37° C. and under 5% CO2, in DMEM/F12 medium containing 10% FCS (fetal calf serum) and in each case split 1:10 after 2-3 days. Test cultures are seeded in 384-well plates with 2000 cells per well and grown at 37° C. for approx. 48 hours. The medium is then replaced with a physiological sodium chloride solution (130 mM sodium chloride, 5 mM potassium chloride, 2 mM calcium chloride, 20 mM HEPES, 1 mM magnesium chloride hexahydrate, 5 mM sodium bicarbonate, pH 7.4). The substances to be tested, which are dissolved in DMSO, are pipetted into the test cultures (maximum final concentration of DMSO in the test mixture: 0.5%) in a dilution series of from 5×10^−11 M to 3×10^−6 M (final concentration). 10 minutes later, forskolin is added to the A1 cells and all the cultures are subsequently incubated at 37° C. for four hours. After that, 35 μl of a solution which is composed of 50% lysis reagent (30 mM disodium hydrogenphosphate, 10% glycerol, 3% TritonX100, 25 mM TrisHCl, 2 mM dithiotreitol (DTT), pH 7.8) and 50% luciferase substrate solution (2.5 mM ATP, 0.5 mM luciferin, 0.1 mM coenzyme A, 10 mM tricine, 1.35 mM magnesium sulfate, 15 mM DTT, pH 7.8) are added to the test cultures, which are shaken for approx. 1 minute and the luciferase activity is measured using a camera system. The EC50 values are determined, i.e., the concentrations at which 50% of the luciferase response is inhibited in the case of the A1 cell, and, respectively, 50% of the maximum stimulation with the corresponding substance is achieved in the case of the A2b and A2a cells. […] Pharmacol., 357, 1-9 (1998)).

adenosine A2a receptor = molecular target: T2, adenosine A2a receptor (Homo sapiens, UniProt P29274); experiment: Indirect determination of adenosine agonism by way of gene expression (luciferase), A2a cells; conditions: stably transfected CHO cells; 50% of maximum stimulation of luciferase
T2 construct: expressed in transfected cells; host or cells: CHO (Chinese Hamster Ovary)
From the text: as §1, §2, §3

adenosine A2b receptor = molecular target: T3, adenosine A2b receptor (Homo sapiens, UniProt P29275); experiment: Indirect determination of adenosine agonism by way of gene expression (luciferase), A2b cells; conditions: stably transfected CHO cells; 50% of maximum stimulation of luciferase
T3 construct: expressed in transfected cells; host or cells: CHO (Chinese Hamster Ovary)
T3 sequence (P29275 1-332): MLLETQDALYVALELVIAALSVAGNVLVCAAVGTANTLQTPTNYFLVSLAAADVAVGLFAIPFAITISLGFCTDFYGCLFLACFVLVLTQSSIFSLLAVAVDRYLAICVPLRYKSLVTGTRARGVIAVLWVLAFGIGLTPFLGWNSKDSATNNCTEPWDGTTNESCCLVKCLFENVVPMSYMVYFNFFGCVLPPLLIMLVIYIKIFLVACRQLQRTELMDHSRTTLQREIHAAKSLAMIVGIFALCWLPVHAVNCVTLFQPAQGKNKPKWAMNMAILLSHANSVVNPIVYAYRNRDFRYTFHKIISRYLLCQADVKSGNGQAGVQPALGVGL
From the text: as §1, §2, §3

[1] = molecular target: T4, adenosine receptor subtype A1 (A1-Gα 16 fusion construct) (Homo sapiens, UniProt P30542); experiment: Indirect determination of adenosine antagonism via gene expression (NFAT luciferase), A1-Gα16 cells; conditions: CHO K1 A1-Gα16 cells; agonist 25 nM CPA
T4 construct: "an A1-Gα 16 fusion construct
T4 sequence (P30542 1-326): T1 sequence (P30542 1-326)
From the text: (§4) B-5. Indirect Determination of Adenosine Antagonism Via Gene Expression
For determination of adenosine antagonism on the adenosine receptor subtype A1, once again CHO K1 cells are stably transfected, but this time with a Ca^2+-sensitive reporter construct (NFAT-TA-Luc; Clontech) and an A1-Gα 16 fusion construct. This receptor chimera is, in contrast to the native A1 receptor (Gαi-coupling), coupled to the phospholipase C. The luciferase is expressed here as a function of the cytosolic Ca^2+concentration.
(§5) The permanent cell lines are cultured in DMEM/F12 (Cat.No. BE04-687Q; BioWhittaker) with 10% FCS (fetal calf serum) and various additives (20 ml/liter 1 M HEPES (Cat. No. 15630; Gibco), 20 ml/liter GlutaMAX (Cat. No. 35050-038, Gibco), 14 ml/liter MEM sodium pyruvate (Cat. No. 11360-039; Gibco) 10 ml/liter PenStrep (Cat. No. 15070-063; Gibco)) at 37° C. under 5% carbon dioxide, and split twice weekly.
For testing in the 384-well plate format, the cells are sown at 2000 cells/well in 25 μl/well sowing medium and cultured at 37° C. under 5% carbon dioxide until substance testing. The A2a and A2b cells are sown, 24 h before substance testing, in medium with additives and 5% FCS, the base medium used for the A2a cells being DMEM/F12 and the base medium used for the A2b cells being OptiMEM (Cat. No. 31985-047; Gibco). […] The luciferase activity is detected with a luminescence reader. […]

[2] = molecular target: T5, adenosine receptor subtype A2b (Homo sapiens, UniProt P29275); experiment: Indirect determination of adenosine antagonism via gene expression (CRE luciferase), A2b cells; conditions: table after B-5; CHO K1 A2b cells; agonist 30 nM NECA
T5 construct: expressed in transfected cells; host or cells: CHO K1
T5 sequence (P29275 1-332): T3 sequence (P29275 1-332)
From the text: as §4
(§6) Cells of the permanent line CHO K1 (Chinese Hamster Ovary) are stably transfected with a reporter construct (CRE luciferase) and the cDNA for the adenosine receptor subtype A2a or A2b. A2a or A2b receptors are coupled via Gas proteins to the adenylate cyclase. Through receptor activation, the adenylate cyclase is activated and therefore the cAMP level in the cell increases. Via the reporter construct, a cAMP-dependent promoter, the change in the cAMP level is coupled to luciferase expression.
as §5
(§7) For testing in the 384-well plate format, the cells are sown at 2000 cells/well in 25 μl/well sowing medium and cultured at 37° C. under 5% carbon dioxide until substance testing. […] The luciferase activity is detected with a luminescence reader. […]

[3] = molecular target: T6, adenosine receptor subtype A2a (Homo sapiens, UniProt P29274); experiment: Indirect determination of adenosine antagonism via gene expression (CRE luciferase), A2a cells; conditions: table after B-5; CHO K1 A2a cells; agonist 30 nM NECA
T6 construct: expressed in transfected cells; host or cells: CHO K1
From the text: as §4, §6, §5, §7

T2 sequence (P29274 whole entry): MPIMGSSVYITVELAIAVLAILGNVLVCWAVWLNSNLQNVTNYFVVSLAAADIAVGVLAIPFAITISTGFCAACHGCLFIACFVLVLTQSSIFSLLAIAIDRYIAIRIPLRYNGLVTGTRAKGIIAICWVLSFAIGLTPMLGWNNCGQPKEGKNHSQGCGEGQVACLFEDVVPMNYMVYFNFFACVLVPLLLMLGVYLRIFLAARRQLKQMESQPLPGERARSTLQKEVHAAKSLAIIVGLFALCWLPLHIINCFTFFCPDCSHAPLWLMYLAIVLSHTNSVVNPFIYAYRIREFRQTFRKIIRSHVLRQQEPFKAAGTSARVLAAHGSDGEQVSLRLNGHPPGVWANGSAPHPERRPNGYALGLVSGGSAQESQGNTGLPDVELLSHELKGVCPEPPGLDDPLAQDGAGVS
T6 sequence (P29274 whole entry): as above

Row | SMILES | EC50 (adenosine A1 receptor) [nM] | EC50 (adenosine A2a receptor) [nM] | EC50 (adenosine A2b receptor) [nM] | IC50 [1] [nM] | EC50 [2] [nM] | EC50 [3] [nM]
1 | N#Cc1c(N)nc(SCc2coc(-c3ccc(Cl)cc3)n2)c(C#N)c1-c1cn[nH]c1 [Example 12] | 2.4 | 3000 | 3000 | – | – | –
2 | CNC(=O)c1cc(CSc2nc(NCCO)c(C#N)c(-c3cc[nH]n3)c2C#N)ccn1 [Example 29] | – | – | – | 3.6 | 267 | –
3 | N#Cc1c(SCc2csc(-c3ccc(Cl)cc3)n2)nc(N2CC(O)C2)c(C#N)c1-c1nccs1 [Example 22] | 0.6 | 2470 | 1280 | – | – | –
4 | N#Cc1c(N)nc(SCc2csc(-c3ccc(Cl)cc3)n2)c(C#N)c1-c1cscn1 [Example 1, 2-Amino-6-([2-(4-chlorophenyl)-1,3-thiazol-4-yl]methylsulfanyl)-4-(1,3-thiazol-4-yl)pyridine-3,5-dicarbonitrile] | 0.5 | 3000 | 1570 | – | – | –
5 | N#Cc1c(N)nc(SCc2csc(-c3ccc(Cl)cc3)n2)c(C#N)c1-c1cccs1 [Example 32, 2-Amino-6-({[2-(4-chlorophenyl)-1,3-thiazol-4-yl]methyl}sulfanyl)-4-thiophen-2-ylpyridine-3,5-dicarbonitrile] | 0.3 | 184 | 34 | – | – | –
6 | N#Cc1c(SCc2coc(-c3ccc(Cl)cc3)n2)nc(N2CC(O)C2)c(C#N)c1-c1nccs1 [Example 20] | 0.5 | 3000 | 1800 | – | – | –
7 | N#Cc1c(N)nc(SCc2cccc(C(N)=O)c2)c(C#N)c1-c1cccs1 [Example 37, 3-({[6-Amino-3,5-dicyano-4-(2-thienyl)pyridin-2-yl]thio}methyl)benzamide] | 0.05 | 88 | 28 | – | – | –
8 | CC(O)Cn1ccc(-c2c(C#N)c(N)nc(SCc3csc(-c4ccc(Cl)cc4)n3)c2C#N)n1 (centres unmarked) [Example 30, 2-Amino-6-([2-(4-chlorophenyl)-1,3-thiazol-4-yl]methylsulfanyl)-4-[1-(2-hydroxypropyl)-1H-pyrazol-3-yl]pyridine-3,5-dicarbonitrile] | 1.9 | 2000 | 1410 | – | – | –
9 | N#Cc1c(NC[C@H](O)CO)nc(SCc2csc(-c3ccc(Cl)cc3)n2)c(C#N)c1-c1nccs1 [Example 21] | 0.5 | 378 | 3000 | – | – | –
10 | N#Cc1c(SCc2csc(-c3ccc(Cl)cc3)n2)nc(N2CC[C@@H](O)C2)c(C#N)c1-c1cncs1 [Example 47, 2-({[2-(4-Chlorophenyl)-1,3-thiazol-4-yl]methyl}sulfanyl)-6-[(3R)-3-hydroxypyrrolidin-1-yl]-4-(1,3-thiazol-5-yl)pyridine-3,5-dicarbonitrile] | 0.5 | 3000 | 3000 | – | – | –
11 | N#Cc1c(SCc2csc(-c3ccc(Cl)cc3)n2)nc(N2CC(O)C2)c(C#N)c1-c1cc[nH]n1 [Example 27] | 1.1 | 6500 | 6500 | – | – | –
12 | N#Cc1c(SCc2csc(-c3ccc(Cl)cc3)n2)nc(N2CC(O)C2)c(C#N)c1-c1cncs1 [Example 16, 2-([2-(4-Chlorophenyl)-1,3-thiazol-4-yl]methylsulfanyl)-6-(3-hydroxyazetidin-1-yl)-4-(1,3-thiazol-5-yl)pyridine-3,5-dicarbonitrile] | 0.4 | 3000 | 3000 | – | – | –
13 | CNC(=O)c1cc(CSc2nc(N)c(C#N)c(-c3cc[nH]n3)c2C#N)ccn1 [Example 15] | – | – | – | 0.5 | 40 | ≥ 50000
14 | N#Cc1c(N)nc(SCc2csc(-c3ccc(Cl)cc3)n2)c(C#N)c1-c1cnc[nH]1 [Example 8] | 1.2 | 275 | 715 | – | – | –
15 | N#Cc1c(N)nc(SCc2coc(-c3ccc(Cl)cc3)n2)c(C#N)c1-c1cncs1 [Example 4, 2-Amino-6-([2-(4-chlorophenyl)-1,3-oxazol-4-yl]methylsulfanyl)-4-(1,3-thiazol-5-yl)pyridine-3,5-dicarbonitrile] | 0.9 | 3000 | 3000 | – | – | –
